Where two headings read alike, the source gives them in different places.
Legend:
Assay type in all cases: in vivo
rice (Oryra sativa) = experiment: Test B flooded paddy test; conditions: Oryza sativa, Flood, 250 g ai/ha, read-out: Rice plant response rating
How it was run: (§1)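 Percent control, visually estimated after 13–15 d in the greenhouse on a 0–100 basis, compares treated pots with untreated ones; compound was put into paddy water 3 cm above the soil when plants had two leaves.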

[1] = test system: barnyardgrass (Echinochloa crus-galli); experiment: Test B flooded paddy test; conditions: Echinochloa crus-galli, Flood, 250 g ai/ha, read-out: Barnyardgrass plant response rating
How it was run: as §1

[2] = test system: ducksalad (Heteranthera limosa); experiment: Test B flooded paddy test; conditions: Heteranthera limosa, Flood, 250 g ai/ha, read-out: Ducksalad plant response rating
How it was run: as §1

[3] = test system: sedge, umbrella (small-flower umbrella sedge, Cyperus difformis); experiment: Test B flooded paddy test; conditions: Cyperus difformis, Flood, 250 g ai/ha, read-out: Sedge, Umbrella plant response rating
How it was run: as §1

[4] = test system: giant foxtail (Setaria faberii); experiment: Test A preemergence; conditions: Setaria faberi, pre-emergence, 240 h; for pest or weed control at 125 g/ha: 125 g ai/ha; for pest or weed control at 500 g/ha: 500 g ai/ha
How it was run: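 Ratings of 0 (no effect) to 100 (complete control) come from visual comparison with untreated controls roughly 10 d after treatment. Test chemicals, formulated in a non-phytotoxic solvent mixture with surfactant, were applied either as a preemergence directed soil spray on seeded soil or postemergence to one- to two-leaf plants 2 to 10 cm tall.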

[5] = scale of 0 to 100 where 0 is no effect and 100 is complete control
[6] = preemergence, 0 to 100 scale where 0 is no effect and 100 is complete control, read-out: Foxtail, Giant plant response rating
[7] = Preemergence, visual injury vs untreated controls after approximately 10 d, read-out: Foxtail, Giant plant response rating (0 to 100 scale where 0 is no effect and 100 is complete control)
[8] = 0 to 100 scale where 0 is no effect and 100 is complete control
[9] = Preemergence, visual injury rating after approximately 10 d, read-out: Foxtail, Giant plant response rating (0 to 100 scale, 0 is no effect, 100 is complete control)
[10] = preemergence, visual injury rating about 10 d after treatment, 0 to 100 scale (0 no effect, 100 complete control), read-out: Foxtail, Giant plant response rating

SMILES	pest or weed control at 250 g/ha (rice (Oryra sativa); [5]) [%]	pest or weed control at 250 g/ha [1, 5] [%]	pest or weed control at 250 g/ha [2, 5] [%]	pest or weed control at 250 g/ha [3, 5] [%]	pest or weed control at 125 g/ha [4, 6] [%]	pest or weed control at 500 g/ha [4, 7] [%]	pest or weed control at 250 g/ha (rice (Oryra sativa); [8]) [%]	pest or weed control at 250 g/ha [1, 8] [%]	pest or weed control at 250 g/ha [2, 8] [%]	pest or weed control at 250 g/ha [3, 8] [%]	pest or weed control at 125 g/ha [4, 9] [%]	pest or weed control at 500 g/ha [4, 10] [%]	pest or weed control at 125 g/ha ([4]; preemergence, 0 to 100 scale where 0 is no effect and 100 is complete control, approx. 10 d, read-out: Foxtail, Giant plant response rating) [%]	pest or weed control at 500 g/ha [4, 6] [%]
CN1C[C@H](c2cc(F)cc(F)c2)[C@@H](C(=O)Nc2ccc(C(F)(F)F)nc2)C1=O [Compound 870]	0	0	0	0	20	50	–	–	–	–	–	–	–	–
O=C1NC[C@H](c2cc(F)c(C(F)(F)F)c(F)c2)[C@H]1C(=O)Nc1cccc(F)c1F [Compound 838]	0	40	100	0	90	90	–	–	–	–	–	–	–	–
O=C1NC[C@H](c2ccc3c(c2)CCC3)[C@H]1C(=O)Nc1ccccc1F [Compound 1045]	–	–	–	–	–	–	0	75	100	0	80	90	–	–
COc1ccc([C@H]2CN(C)C(=O)[C@@H]2C(=O)Nc2cccc(F)c2F)cc1F [Compound 1021]	–	–	–	–	–	–	15	80	98	0	100	100	–	–
Cc1ccc([C@H]2CN(C)C(=O)[C@]2(O)C(=O)Nc2cccc(F)c2F)cc1 (racemic) [Compound 1059]	–	–	–	–	–	–	0	0	0	0	70	80	–	–
Cc1ccc([C@H]2CNC(=O)[C@@H]2C(=O)Nc2cccc(F)c2F)cc1C [Compound 1034]	–	–	–	–	–	–	0	60	100	0	80	90	–	–
CN1C[C@H](c2cc(F)c(F)c(F)c2)[C@@H](C(=O)Nc2cccc(F)c2F)C1=O [Compound 879]	0	90	100	50	100	100	–	–	–	–	–	–	–	–
O=C(Nc1cccc(F)c1F)[C@H]1C(=S)NC[C@@H]1c1ccc(C(F)(F)F)cc1 (racemic) [Compound 1048]	–	–	–	–	–	–	0	30	50	0	90	90	–	–
O=C1NC[C@H](c2ccc3c(c2)OCO3)[C@H]1C(=O)Nc1ccc(F)c(F)c1F [Compound 1027]	–	–	–	–	–	–	30	40	100	0	40	90	–	–
Cc1ccc([C@H]2CNC(=S)[C@@H]2C(=O)Nc2ccccc2F)cc1 (racemic) [Compound 945]	0	0	85	0	–	–	–	–	–	–	0	70	–	–
CN1C[C@H](c2cc(F)c(F)c(F)c2)[C@@H](C(=O)Nc2ccccc2S(C)(=O)=O)C1=O [Compound 880]	0	60	100	0	100	100	–	–	–	–	–	–	–	–
CN1C[C@H](c2cc(C(F)F)cs2)[C@@H](C(=O)Nc2ccccc2F)C1=O [Compound 1120]	–	–	–	–	–	–	20	65	100	0	–	–	90	100
